# From patent US20230390403A1, “COMPOSITIONS AND METHODS FOR DRUG DELIVERY” (North Carolina State University, priority 2020, published 2023)
# How the values were obtained:
# [1] = In vitro PTX release: hydrolysis of PTX succinic acid in PBS (HPLC); assay type: physicochemical; conditions: for half-life: PBS, 37° C.; for PTX-succinate remaining intact: after 24 hours
# Description: In Vitro PTX Release. Hydrolytic studies of PTX succinic acid were carried out at 37° C. in PBS containing 0.01% DMSO and 0.1% Tween 80 at pH 7.4 and pH 6.5. 5.33 μM of PTX-succinic acid was dissolved in a 5 ml of medium and kept continuously stirring at 150 rpm/min. 50 μL of sample was removed at predetermined time intervals of 0, 24, 48, 72 and 96 hours and replaced with 50 μL of fresh media. Removed samples were mixed with 50% of acetonitrile and analyzed using Agilent 1290 HPLC system with Agilent 2.1×50 mm C18 column and mobile phase consisting of 60% ammonium formate and 40% acetonitrile. Concentration of PTX-SA and free PTX were determined using calibration curves.
# The hydroxyl group at the C-2′ position is necessary for paclitaxel's anticancer activities. Therefore, the succinate ester must hydrolyze to achieve desired antitumor responses (41). We measured paclitaxel release from PTX-succinate in PBS at 37° C. in both neutral pH and the slightly acidic conditions (pH˜6.5) commonly observed in the tumor microenvironments. Disappearance of the PTX succinate peak and appearance of PTX peak was quantified using HPLC. […] After 24 hours, nearly 82% of PTX-succinate remained intact in acidic conditions, while 54% remained in the neutral condition. […] In contrast at the more acidic pH, paclitaxel continued its accumulation in the release media, with 60% of initial dose observed at 96 hours.
# U87 tumor [2] = experiment: Intratumoral anchoring of Cy7-maleimide (IVIS fluorescence); assay type: in vivo, nude mice; conditions: 50 uL of 0.2 mM, 1 week after injection
# Description: FIG. 13 illustrates the intratumoral anchoring of Cy7-maleimide after one week.
# To investigate whether active maleimide molecules can anchor to tissue in a tumor, nude mice were injected subcutaneously with U87 tumor cells mixed with Matrigel. Once tumor reached 100 mm^3, Cy7-maleimide (50 uL of 0.2 mM) was injected intratumorally and monitored for fluorescence over 1 week using an IVIS imager. ICG/ICG excitation and emission filters were used for all IVIS images. […] This validated that anchorable drug compounds containing a maleimide tissue binding moiety could efficiently react with thiol moieties present in proteins found within tumors following intratumoral injection.
# dermal tissue = experiment: Intradermal anchoring of Cy7-maleimide (IVIS fluorescence); assay type: in vivo, CD-1 mice
# Description: FIG. 12 is a plot showing the percent of the initial injection dose (% ID) maintained one day and one week following injection of Cy7-maleimide alone, Cy7-maleimide plus tris(2-carboxyethyl)phosphine (TCEP), and Cy7-maleimide plus mercaptoethanol (MCE).
# To investigate whether maleimide molecules can anchor to dermal tissue by binding to available thiol groups, CD-1 mice were injected intradermally with Cy7-maleimide (50 uL of 0.2 mM) and monitored for fluorescence over 1 week using an IVIS imager. ICG/ICG excitation and emission filters were used for all IVIS images. Cy7-maleimide plus TCEP was used to attempt to increase free thiols by breaking disulfide bonds.
# U87 tumor [3] = experiment: Tumor inhibition and survival after intratumoral or intravenous aldoxorubicin; assay type: in vivo, nude mice; conditions: intratumoral 10.5 mg/kg; compared to saline and intravenous aldoxorubicin
# Excerpt: FIGS. 14A-14D show the impact of intratumoral anchoring and local tumor release of a chemotherapeutic agent (aldoxorubicin) functionalized with a maleimide tissue binding moiety. FIG. 14A plots the percent change in tumor volume as a function of days after injection for mice treated with saline injection alone (control), intravenous injection of aldoxorubicin, and intratumoral injection of aldoxorubicin. FIG. 14B is a plot showing the probability of survival for mice treated with saline injection alone (control), intravenous injection of aldoxorubicin, and intratumoral injection of aldoxorubicin. FIG. 14C is a plot comparing tumor volume 7 days after treatment with saline injection alone (control), treatment with intravenous injection of aldoxorubicin, and treatment with intratumoral injection of aldoxorubicin. FIG. 14D is a plot comparing tumor volume 14 days after treatment with saline injection alone (control), treatment with intravenous injection of aldoxorubicin, and treatment with intratumoral injection of aldoxorubicin.
# In a further proof-of-principle study, aldoxorubicin was used to validate the concept of anchoring (and subsequent local tumor release) of a chemotherapeutic agent functionalized with a maleimide tissue binding moiety. […] Tumor size and weight were measured at varying intervals following injection. […]
# [4] = Aqueous solubility compared to paclitaxel; assay type: physicochemical
# [5] = system: KPC 4662 murine pancreatic tumor; experiment: In vivo assessment of PTX-sNHS induced apoptosis (cleaved caspase 3 staining); parameters: species or system C57BL/6 mice; conditions: 72 hours after single intratumoral injection, 20 mg/kg
# Description: To assess the ability of intratumoral depots to release free paclitaxel and induce apoptotic tumor cell death, ectopic pancreatic tumor model was developed by subcutaneous inoculation of approximately 1*10^6 KPC 4662 murine pancreatic tumor cells in 1:1 PBS/matrigel (Corning/cat #354234) solution on the dorsal flanks of 8 week old female albino C57BL/6 mice (Charles River). Once the tumors were approximately 100 mm^3 in volume, animals were randomly divided into four groups to receive either no treatment or single intratumoral injection of vehicle (50% NMP: alfa aesar, #AA44063-K2, 50% Saline: cat #470302-026, VWR), free paclitaxel (Medkoo, cat #100690, 20 mg/kg) and paclitaxel-sNHS (n=3/group, 20 mg/kg). […] For quantification of apoptosis, CC-3-stained vs hematoxylin-stained areas were measured with respect to total tumor area (45, 46).
# To investigate whether intratumoral injection of TRAP paclitaxel has therapeutic efficacy in vivo, we studied paclitaxel-induced apoptosis in the fibrous, syngeneic KPC 4662 pancreatic adenocarcinoma mouse model. […] For quantification of apoptosis, whole tissue sections were scanned to detect CC-3 positive areas and quantified to assess the percent of whole tumor area undergoing apoptosis. […] Quantification of apoptosis was performed by computationally separating CC-3 stained from hematoxylin stained areas (45). […]
compound,measurement,setting,value
2′-O-succinyl paclitaxel [PTX-succinate],half-life,[1]; neutral pH,~37 h
same,half-life,[1]; pH 6.5,~56 h
same,"free paclitaxel in release media, of initial dose","[1]; acidic pH (6.5), 96 hours",60%
same,PTX-succinate remaining intact,[1]; acidic conditions (pH 6.5),~82%
same,PTX-succinate remaining intact,[1]; neutral condition,54%
same,free paclitaxel released (maximum),"[1]; neutral pH, 96 hours",32%
"C[N+]1=C(C=CC2=CC(=CC=C3N(CCCCCC(=O)NCCN4C(=O)C=CC4=O)c4ccccc4C3(C)C)CCC2)C(C)(C)c2ccccc21.[Cl-] [Cy7-maleimide, cyanine 7 maleimide]",injection dose maintained,U87 tumor [2],approximately 18%
same,skin irritation or skin toxicity,"dermal tissue; intradermal injection, monitored over 1 week",No skin irritation or skin toxicity was observed
same,injection dose maintained,"dermal tissue; intradermal, 50 uL of 0.2 mM, after 1 week",approximately 10%
COc1cccc2c1C(=O)c1c(O)c3c(c(O)c1C2=O)C[C@@](O)(/C(CO)=N/NC(=O)CCCCCN1C(=O)C=CC1=O)C[C@@H]3O[C@H]1C[C@H](N)[C@H](O)[C@H](C)O1 [aldoxorubicin],survival probability,U87 tumor [3],improved
same,tumor inhibition,U87 tumor [3],improved
CC(=O)O[C@H]1C(=O)[C@@]2(C)[C@H]([C@H](OC(=O)c3ccccc3)[C@]3(O)C[C@H](OC(=O)[C@H](O)[C@@H](NC(=O)c4ccccc4)c4ccccc4)C(C)=C1C3(C)C)[C@]1(OC(C)=O)CO[C@@H]1C[C@@H]2O [paclitaxel],aqueous solubility,[4],poorly soluble
same,"apoptotic area (CC-3 stained), of total tumor area",[5],27%
same,"necrosis, of tumor area",[5]; color saturation analysis,~30%
